| melting point [°C] | Compound |
| --- | --- |
| 307 to 309 | C[C@H]1C(=O)N2[C@H](c3ccc4c(c3)OCO4)c3[nH]c4ccccc4c3C[C@@H]2C(=O)N1C [Compound B, (3S, 6R, 12aR)-2,3,6,7,12,12a-hexahydro-2,3-dimethyl-6-(3,4-methylenedioxyphenyl)-pyrazino[2′, 1′:6,1]pyrido[3,4-b]indole-1,4-dione] |
| 319 to 321 | C[C@@H]1NC(=O)[C@H]2Cc3c([nH]c4ccccc34)[C@@H](c3ccc4c(c3)OCO4)N2C1=O [Example 3, (3S, 6R,12aR)-2,3,6,7,12,12a-Hexahydro-3-methyl-6-(3,4-methylenedioxyphenyl)-pyrazino[2′, 1′:6,1]pyrido[3,4-b]indole-1,4-dione] |
